Measured values from the Deep4Chem optical property database.
Each block holds one compound with its values, some of them ahead of it.

Assay: solvent given as SMILES

Structure (SMILES): N#CC(C#N)=Cc1ccc(-c2ccc(O)c(-c3nc4ccccc4s3)c2)o1
emission maximum (in CCO): 632 nm | emission maximum (in ClCCl): 612 nm | emission maximum (in O): 652 nm

Structure (SMILES): COc1ccc2c3c([nH]c2c1)C(C)=NCC3
emission maximum (in CC#N): 480 nm | emission maximum (in CS(C)=O): 420 nm | emission maximum (in O): 480 nm

Structure (SMILES): CCCCC(CC)CN1C(=O)C2=C(c3ccc(-c4ccc(C5=C6C(C)=CC(C)=[N+]6[B-](F)(F)n6c(C)cc(C)c65)cc4)s3)N(CC(CC)CCCC)C(=O)C2=C1c1ccc(-c2ccc(C3=C4C(C)=CC(C)=[N+]4[B-](F)(F)n4c(C)cc(C)c43)cc2)s1 (stereo unspecified)
emission maximum (in Cc1ccccc1): 637 nm

Structure (SMILES): COc1ccc2cc3c(C)cc(=O)oc3cc2c1
emission maximum (in CC#N): 453 nm | emission maximum (in CCO): 464 nm | emission maximum (in CCOC(C)=O): 435 nm | emission maximum (in CO): 469 nm | emission maximum (in ClC(Cl)Cl): 443 nm | emission maximum (in OCC(F)(F)F): 496 nm

Structure (SMILES): c1ccc(-c2c3ccc(=[N+]4CCCCC4)cc-3oc3cc(N4CCCCC4)ccc23)cc1
emission maximum (in CCO): 588 nm | emission maximum (in ClCCl): 585 nm

Structure (SMILES): Cc1cc(C2=C(c3cc(C)sc3C)S(=O)(=O)c3ccccc32)c(C)s1
emission maximum (in C1CCOC1): 465 nm

Structure (SMILES): CN1C(=CC2=C([O-])C(=CC3=[N+](C)c4ccccc4C3(C)C)C2=O)C(C)(C)c2ccccc21
emission maximum (in ClC(Cl)Cl): 643 nm

Structure (SMILES): CC(C)(C)c1ccc2c(c1)c1cc(C(C)(C)C)ccc1n2-c1ccc(S(=O)(=O)c2cccc(S(=O)(=O)c3ccc(-n4c5ccc(C(C)(C)C)cc5c5cc(C(C)(C)C)ccc54)cc3)c2)cc1
emission maximum (in Cc1ccccc1): 422 nm

Structure (SMILES): Oc1ccccc1-c1nc(-c2ccccc2)c2ccccn12
emission maximum (in C1CCCCC1): 479 nm | emission maximum (in CC#N): 480 nm | emission maximum (in CO): 474 nm | emission maximum (in ClCCl): 484 nm | emission maximum (in O): 481 nm

Structure (SMILES): CC1=CC(C)=[N+]2C1=C(c1c3ccccc3c(-c3ccccc3)c3ccccc13)c1c(C)cc(C)n1[B-]2(F)F
emission maximum (in CC#N): 508 nm | emission maximum (in CCCCCC): 514 nm | emission maximum (in CCO): 512 nm | emission maximum (in CN(C)C=O): 515 nm | emission maximum (in Cc1ccccc1): 519 nm | emission maximum (in ClCCl): 515 nm

Structure (SMILES): CCCCCCCCCCn1nnc(-c2ccc(C#Cc3ccc(C#Cc4ccc(-c5nnn(CCCCCCCCCC)n5)cc4)c4nc5c6ccccc6c6ccccc6c5nc34)cc2)n1
emission maximum (in C1CCOC1): 495 nm | emission maximum (in Cc1ccccc1): 488 nm | emission maximum (in ClCCl): 502 nm

Structure (SMILES): C(/C=C/Nc1ccccc1)=[NH+]c1ccccc1
emission maximum (in CS(C)=O): 492 nm

Structure (SMILES): CC1(C)c2ccccc2N(c2ccc(C(=O)c3cc(C(=O)c4ccc(N5c6ccccc6C(C)(C)c6ccccc65)cc4)cc(C(=O)c4ccc(N5c6ccccc6C(C)(C)c6ccccc65)cc4)c3)cc2)c2ccccc21
emission maximum (in Cc1ccccc1): 530 nm | emission maximum (in c1ccc2c(c1)c1ccccc1n2-c1ccc(-c2ccc(-n3c4ccccc4c4ccccc43)cc2)cc1): 521 nm

Structure (SMILES): CC1=CC(C)=[N+]2C1=C(c1ccccc1)c1c(C)cc(/C=C/c3ccc(N(C)C)cc3)n1[B-]2(F)F
emission maximum (in CCOCC): 638 nm

Structure (SMILES): Nc1cccc2ncccc12
emission maximum (in CC#N): 480 nm | emission maximum (in O): 534 nm

Structure (SMILES): O=c1c2cc(Cl)ccc2nc2n1[B-](F)(F)[n+]1ccccc1-2
emission maximum (in CC#N): 439 nm | emission maximum (in ClCCl): 444 nm

Structure (SMILES): CSc1nc(-c2ccc(-n3c4ccccc4c4ccccc43)cc2)cc(-c2ccc(-n3c4ccccc4c4ccccc43)cc2)n1
emission maximum (in C1CCOC1): 447 nm | emission maximum (in CN(C)C=O): 497 nm | emission maximum (in Cc1ccccc1): 410 nm | emission maximum (in ClC(Cl)Cl): 446 nm

Structure (SMILES): c1ccc2c(c1)c1ccccc1c1ncncc21
emission maximum (in ClCCl): 368 nm

Structure (SMILES): CCCCCCC1(CCCCCC)c2cc(-c3nc(-c4ccc5c(c4)C(CCCCCC)(CCCCCC)c4cc(N6c7ccccc7Sc7ccccc76)ccc4-5)nc(-c4ccc5c(c4)C(CCCCCC)(CCCCCC)c4cc(N6c7ccccc7Sc7ccccc76)ccc4-5)n3)ccc2-c2ccc(N3c4ccccc4Sc4ccccc43)cc21
emission maximum (in C1CCOC1): 626 nm | emission maximum (in CCCCCC): 462 nm | emission maximum (in Cc1ccccc1): 529 nm | emission maximum (in ClCCl): 650 nm

Structure (SMILES): c1ccc(Cc2c3ccc(=[N+]4CCCCC4)cc-3oc3cc(N4CCCCC4)ccc23)cc1
emission maximum (in ClCCl): 582 nm

Structure (SMILES): COC(=O)c1cc(=O)n(C)c2cc(-c3ccc(N4CCN(C)CC4)cc3)sc12
emission maximum (in CC#N): 587 nm | emission maximum (in ClCCl): 550 nm

Structure (SMILES): Nc1cccc2c1C(=O)c1ccccc1-2
emission maximum (in C1CCCCC1): 471 nm | emission maximum (in CC#N): 501 nm | emission maximum (in CCO): 521 nm | emission maximum (in c1ccccc1): 482 nm

Structure (SMILES): CSc1ccc(C#Cc2ccc(C#Cc3ccc(C#Cc4ccccc4C#N)cc3C#N)cc2C#N)cc1
emission maximum (in ClC(Cl)Cl): 455 nm

Structure (SMILES): CCN(CC)c1ccc2cc(/C=C/c3cccc[n+]3CCCS(=O)(=O)[O-])c(=O)oc2c1
emission maximum (in C1CCOC1): 641 nm | emission maximum (in CC#N): 634 nm | emission maximum (in CC(C)=O): 639 nm | emission maximum (in CS(C)=O): 642 nm | emission maximum (in Cc1ccccc1): 641 nm | emission maximum (in O): 627 nm | emission maximum (in OCC(O)CO): 625 nm

Structure (SMILES): CN(C)c1ccc2nc3c(cc2c1)c(-c1ccccc1)nn3-c1ccccc1
emission maximum (in C1CCCCC1): 444.44 nm | emission maximum (in C1CCOC1): 534.19 nm | emission maximum (in CC#N): 561.48 nm | emission maximum (in CC(C)=O): 552.79 nm | emission maximum (in CCCCCl): 516 nm | emission maximum (in CCCCOCCCC): 498.75 nm | emission maximum (in CN(C)C=O): 566.89 nm

Structure (SMILES): CN(C)c1ccc2nc(-c3ccc(C=C(C#N)C#N)cc3)sc2c1
emission maximum (in C1CCCCC1): 526 nm | emission maximum (in ClC(Cl)Cl): 683 nm

Structure (SMILES): Clc1ccc(/C=C/c2ccncn2)cc1
emission maximum (in ClCCl): 411 nm

The remaining lines, values ahead:

emission maximum (in C1CCOC1): 405 nm
Structure (SMILES): C1=Cc2ccccc2C(=Cc2ccc(-c3cc(-c4ccc(C=C5c6ccccc6C=Cc6ccccc65)cc4)cc(-c4ccc(C=C5c6ccccc6C=Cc6ccccc65)cc4)c3)cc2)c2ccccc21

emission maximum (in CC#N): 473 nm
Structure (SMILES): O=C(O)c1ccc(-c2nc(-c3ccccc3)c3c4ccccc4ccn23)cc1

emission maximum (in ClCCl): 600 nm
Structure (SMILES): CC(C)(C)c1ccc2c(c1)c1cc(C(C)(C)C)ccc1n2-c1ccc(N(c2ccc(-c3ccc(-c4ccc(N(c5ccc(-n6c7ccc(C(C)(C)C)cc7c7cc(C(C)(C)C)ccc76)cc5)c5ccc(-n6c7ccc(C(C)(C)C)cc7c7cc(C(C)(C)C)ccc76)cc5)cc4)c4nsnc34)cc2)c2ccc(-n3c4ccc(C(C)(C)C)cc4c4cc(C(C)(C)C)ccc43)cc2)cc1

emission maximum (in C1COCCO1): 478 nm | emission maximum (in CC#N): 479 nm | emission maximum (in CCCCOCCCC): 477 nm | emission maximum (in CCOC(C)=O): 477 nm
Structure (SMILES): COc1nc(Nc2ccc3c4cccc5cccc(c6cccc2c63)c54)nc(OC)n1

emission maximum (in ClCCl): 549 nm
Structure (SMILES): COc1ccc(N2c3sc4ccccc4c3Sc3c2sc2ccccc32)cc1

emission maximum (in CN(C)C=O): 416 nm
Structure (SMILES): Cc1ccc2[nH]c(-c3ccc(-c4ccc(-c5ccc(-c6nc7cc(C)ccc7[nH]6)cc5)cc4)cc3)nc2c1

emission maximum (in CO): 478 nm
Structure (SMILES): COc1ccc(-c2nc(-c3cccc(C#N)c3)[nH]c2-c2ccc(OC)cc2)cc1

emission maximum (in C1CCOC1): 395 nm
Structure (SMILES): COc1ccc(C(=Cc2ccc(C#N)cc2)c2ccc(OC)cc2)cc1

emission maximum (in C1CCCCC1): 423 nm | emission maximum (in C1CCOC1): 549 nm | emission maximum (in CC#N): 570 nm | emission maximum (in CS(C)=O): 584 nm | emission maximum (in ClCCl): 551 nm
Structure (SMILES): CN(C)c1ccc(C#Cc2nc(-c3ccccc3)nc3ccccc23)cc1

emission maximum (in ClCCl): 583 nm
Structure (SMILES): Cc1ccccc1N1c2c(sc3ccccc23)Sc2sc3ccccc3c21

emission maximum (in ClCCl): 490 nm
Structure (SMILES): c1ccc(-c2nc(-c3ccc(N4c5ccccc5Oc5ccccc54)cc3)nn2-c2ccc(N3c4ccccc4Oc4ccccc43)cc2)nc1

emission maximum (in CO): 796 nm
Structure (SMILES): CC1(C)C(/C=C/C2=C(Oc3ccc(CCN=C=S)cc3I)C(=C/C=C3/N(CCCS(=O)(=O)[O-])c4ccccc4C3(C)C)/CCC2)=[N+](CCCS(=O)(=O)[O-])c2ccccc21

emission maximum (in O): 550 nm
Structure (SMILES): N#Cc1c(N2CCCC2)cc(-c2ccccc2)c2c1-c1cccc3cccc-2c13

emission maximum (in CO): 558 nm
Structure (SMILES): Cc1cc(C)c(B(c2cc(-c3ccccc3)sc2-c2sc(-c3ccccc3)cc2P(=O)(c2ccccc2)c2ccccc2)c2c(C)cc(C)cc2C)c(C)c1

emission maximum (in ClC(Cl)Cl): 453 nm
Structure (SMILES): CCCCCCc1ccc(-n2c3c4cccc(OC)c4nc(-c4ccc(OC)cc4)c3c3c2c2c(-c4ccc(OC)cc4)nc4c(OC)cccc4c2n3-c2ccc(CCCCCC)cc2)cc1

emission maximum (in C1COCCO1): 426 nm
Structure (SMILES): c1ccc(-c2nc(-c3ccc(-c4ccc(-c5ccc(-c6nc(-c7ccccc7)c(-c7ccccc7)o6)cc5)cc4)cc3)oc2-c2ccccc2)cc1

emission maximum (in CO): 566 nm
Structure (SMILES): CCOC(=O)CCCCCn1c2ccc(F)cc2c(=O)c2cc3c(cc21)c(=O)c1cc(F)ccc1n3CCCCCC(=O)OCC

emission maximum (in ClC(Cl)Cl): 575 nm
Structure (SMILES): N#Cc1nc(N(Cc2ccc(Br)cc2)Cc2ccc(Br)cc2)c(C#N)nc1N(Cc1ccc(Br)cc1)Cc1ccc(Br)cc1

emission maximum (in ClCCl): 425 nm
Structure (SMILES): CC(C)(C)NC(=O)c1ccc2ccc3cccc4c3c2c1c1c2ccccc2c2ccccc2c41

emission maximum (in C1COCCO1): 709 nm | emission maximum (in CCO): 699 nm | emission maximum (in CN(C)C=O): 702 nm | emission maximum (in ClC(Cl)Cl): 709 nm
Structure (SMILES): CCCCCCCN1C(=CC2=C([O-])C(=CC3=[N+](CCCCCCC)c4ccccc4C3(C)C)C2=C(C#N)C#N)Sc2ccccc21

emission maximum (in ClCCl): 526 nm
Structure (SMILES): CCCCCCCCCCCCN1C(=O)c2c(c3ccc4cc(-c5ccccc5)c(OC)cc4c3c3c2ccc2cc(-c4ccccc4)c(OC)cc23)C1=O

emission maximum (in ClCCl): 448 nm
Structure (SMILES): CCCCCCNC(=O)c1sc(-c2ccc(-c3cc(-c4ccc(C(C)(C)C)cc4)c(C(=O)NCCCCCC)s3)s2)cc1-c1ccc(C(C)(C)C)cc1

emission maximum (in ClC(Cl)Cl): 647 nm
Structure (SMILES): CCCCCCCCN1C(=O)c2ccc3c4c(-c5ccc6c7ccccc7n(-c7ccccc7)c6c5)cc5c6c(ccc(c7c(-c8ccc9c%10ccccc%10n(-c%10ccccc%10)c9c8)cc(c2c37)C1=O)c64)C(=O)N(CCCCCCCC)C5=O

emission maximum (in ClCCl): 390 nm
Structure (SMILES): COc1ccc(C#Cc2ncc(-c3ccccc3)o2)cc1OC

emission maximum (in C1COCCO1): 478 nm
Structure (SMILES): COC(=O)c1ccc(/C=C2\N=C(c3ccc(OC)c(OC)c3)NC2=O)cc1

emission maximum (in ClC(Cl)Cl): 657 nm
Structure (SMILES): CCCCCCCCCCCCOc1cc2c3cc(OCCCCCCCCCCCC)c(OCCCCCCCCCCCC)cc3c3c(cc(OCCCCCCCCCCCC)c4nc5cc(C#Cc6ccc(OCCCCCCCC)cc6)c(C#Cc6ccc(OCCCCCCCC)cc6)cc5nc43)c2cc1OCCCCCCCCCCCC

emission maximum (in C1CCOC1): 405 nm
Structure (SMILES): CCCCC1(CCCC)c2cc(C#Cc3ccc(C=C4c5ccccc5C=Cc5ccccc54)cc3)ccc2-c2ccc(C#Cc3ccc(C=C4c5ccccc5C=Cc5ccccc54)cc3)cc21
